pIC50: −log10 of the molar value.
Experiments:
[1] = Stated solid-state and physicochemical properties of the salt (no method described); conditions: qualitative statement, no conditions given
human NHE-1 = molecular target: T1, human NHE-1 (Homo sapiens, UniProt P19634); assay: FLIPR assay of pHi recovery in transfected LAP-1 cell lines expressing human NHE-1; type: cell-based; conditions: transfected cells expressing human NHE-1, read-out: NHE1 inhibition IC50
T1 construct: expressed in transfected cells; host or cells: LAP-1 (parental line without endogenous NHE activity), G418 selection
Method: The inhibitory concentration IC50 for NHE-1 inhibition was determined as follows:
The NHE-1 inhibition IC50 was determined in an FLIPR assay by measurement of the recovery in pHi in transfected cell lines which express human NHE-1.
The assay was carried out in an FLIPR (fluorescent imaging plate reader) with black-walled 96-well microtiter plates having clear bases.
The growth medium for the transfected cells (Iscove+10% fetal calf serum) additionally contained G418 as a selection antibiotic in order to ensure the presence of the transfected sequences.
The actual assay started with the removal of the growth medium and addition of 100 μl of loading buffer per well (5 μM BCECF-AM [2′,7′-bis(carboxyethyl)-5- (and -6-)carboxyfluorescein, acetoxymethyl ester] in 20 mM NH4Cl, 115 mM choline chloride, 1 mM MgCl2, 1 mM CaCl2, 5 mM KCl, 20 mM HEPES, 5 mM glucose; pH 7.4 [adjusted with KOH]). The cells were then incubated at 37° C. for 20 minutes. This incubation led to loading of the cells with the fluorescent dye whose fluorescence intensity depends on pHi, and with NH4Cl which makes the cells slightly alkaline.
The nonfluorescent dye precursor BCECF-AM is, as the ester, membrane-permeable. Inside the cell, esterases release the actual BCECF dye which is membrane-impermeable. […]

T1 sequence (P19634 whole entry): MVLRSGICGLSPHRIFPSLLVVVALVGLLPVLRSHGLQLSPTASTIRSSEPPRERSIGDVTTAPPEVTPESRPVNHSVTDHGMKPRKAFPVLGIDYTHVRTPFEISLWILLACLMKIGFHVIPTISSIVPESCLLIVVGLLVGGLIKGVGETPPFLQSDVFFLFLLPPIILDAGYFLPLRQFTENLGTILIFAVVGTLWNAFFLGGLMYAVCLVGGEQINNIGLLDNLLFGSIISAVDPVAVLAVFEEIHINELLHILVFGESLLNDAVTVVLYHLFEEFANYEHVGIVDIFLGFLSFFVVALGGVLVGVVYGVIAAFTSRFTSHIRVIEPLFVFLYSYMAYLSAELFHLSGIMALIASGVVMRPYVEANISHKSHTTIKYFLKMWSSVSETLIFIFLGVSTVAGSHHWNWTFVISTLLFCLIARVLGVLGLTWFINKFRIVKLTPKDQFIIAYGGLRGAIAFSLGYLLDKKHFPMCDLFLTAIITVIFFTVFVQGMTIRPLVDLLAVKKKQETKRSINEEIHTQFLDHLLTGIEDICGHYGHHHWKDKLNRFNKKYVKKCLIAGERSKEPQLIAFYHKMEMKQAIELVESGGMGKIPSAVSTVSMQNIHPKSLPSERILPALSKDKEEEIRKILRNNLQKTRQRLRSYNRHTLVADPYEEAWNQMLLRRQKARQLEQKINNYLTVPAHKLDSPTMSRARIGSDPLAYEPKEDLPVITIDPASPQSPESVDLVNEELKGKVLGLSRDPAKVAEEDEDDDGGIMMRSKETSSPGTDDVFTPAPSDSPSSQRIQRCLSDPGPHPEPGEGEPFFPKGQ

| Compound | hygroscopicity [1] | solubility [1] | tendency to racemization [1] | pIC50 (human NHE-1) |
| --- | --- | --- | --- | --- |
| NC(N)=NC(=O)C[C@H]1c2cc(C(F)(F)F)ccc2C(=O)N1CC(F)(F)F.O=C(O)/C=C/C(=O)O [(S)-N-{2-[3-Oxo-2-(2,2,2-trifluoroethyl)-6-trifluoromethyl-2,3-dihydro-1H-isoindol-1-yl]-acetyl}guanidine hydrogenfumarate hydrate] | particularly low hygroscopicity | good solubility | low tendency to racemization | – |
| NC(N)=NC(=O)C[C@H]1c2cc(C(F)(F)F)ccc2C(=O)N1CC(F)(F)F [(S)-N-{2-[3-Oxo-2-(2,2,2-trifluoroethyl)-6-trifluoromethyl-2,3-dihydro-1H-isoindol-1-yl]-acetyl}guanidine] | – | – | – | 9.52 |
